Test results from EP1260509A1, “Uses of tocopherol esters” (Derma Developpement S.A.R.L., priority 2001, dated 2002).

Columns and labels:
tyrosine kinase = molecular target: T1, tyrosine kinase (Homo sapiens, UniProt P14679); assay: Tyrosine kinase (tyrosinase) activity in human melanocytes, L-Dopamine substrate, absorbance at 475 nm; type: cell-based, humains; settings: hydroquinone 1 µg/mL (positive control), 72 h; témoin 0.044 ± 0.002
T1 construct: endogenous in cells; host or cells: human melanocytes (cultured)
Experimental: Les mélanocytes humains sont ensemencés à la densité de 50 000 cellules/cm^2 dans des plaques multipuits. Les cellules sont incubées à 37°C en atmosphère humide contenant 5% (v/v) de CO2. Le milieu de culture est le MCDB 153 supplémenté par l'EGF (5 ng/mL) (Sigma), l'insuline (5 µg/mL)(Sigma), l'hydrocortisone (5 ng/mL)(Sigma),du sérum de veau foetal (SVF) à 5 % (v/v)( Gibco). Le milieu de culture est remplacé après 24 heures de culture et supplémenté par des antibiotiques (Peni-Strepto)(Gibco) à 1% (V/v) contenant les différentes concentrations d'un ester de tocophéryle avec un acide gras mono ou polyinsaturé ( 1, 10 et 100 µg/mL).
Une série « témoin positif» est constituée de cellules traitées à l'hydroquinone à 1 µg/mL.
Les cellules sont incubées pendant 72 heures à 37°C en atmosphère humide contenant 5% (v/v) de CO2. A la fin de la période d'incubation, le milieu de culture est prélevé et la couche cellulaire rincée deux fois avec du PBS. 450 µL de Triton X100 à 1% (v/v) dans le PBS sont ajouté dans chaque puits. On agite pendant 10 minutes puis on ajoute 50 µL de L-Dopamine à 10 mM dans du PBS sans Ca^++ ni Mg ^++
On laisse incuber pendant 1 heure à 37°C à l'abri de la lumière, puis on mesure l'absorption à 475 nm au spectrophotomètre. Tableau 1

[1] = test system: fibroblastes de derme humain; assay: Mitochondrial activity of human dermal fibroblasts (rhodamine 123 fluorescence, semi-quantitative score); type: cell-based; settings: antimycine 0,5 µM (positive control), 72 h
Experimental: Les fibroblastes de derme humain sont ensemencées à la densité de 5000 cellules/cm^2 dans 500 µl de milieu IMDM supplémenté par du SVF 10% pendant 24 heures en atmosphère humide contenant 5% (v/v) de CO2
Après 24 heures, les cellules sont mises en contact avec les différentes concentrations d'un ester de tocophéryle avec un acide gras mono ou polyinsaturé ( 10, 50 et 100 µg/ml).
Une série « témoin positif» est constituée de cellules traitées à l'antimycine à 0,5 µM.
Principe : L'incorporation cellulaire de rhodamine 123 est la conséquence de la variation du potentiel transmembranaire mitochondrial. L'évaluation semi-quantitative de la respiration mitochondriale est basée sur l'intensité de la fluorescence à l'intérieur de la cellule.
Les cellules sont incubées pendant 72 heures à 37°C en atmosphère humide contenant 5% (v/v) de CO2. A la fin de la période d'incubation, le milieu de culture est prélevé et la couche cellulaire rincée deux fois avec du milieu IMDM puis mise dans 500 µl de tampon phosphate pH 7.2 contenant 0.1 mg/ml de rhodamine 123.
On laisse incuber pendant 15 minutes à 37 °C, puis on mesure la fluorescence de façon semi-quantitative à l'aide d'une échelle de cotation.
Echelle de cotation (Intensité de fluorescence) : 0 : cytoplasme non fluorescent, 1 : faible; 2 : moyennement intense; 3 : Importante; 4 : Très importante, tout le cytoplasme est fluorescent.

T1 sequence (P14679 19-529): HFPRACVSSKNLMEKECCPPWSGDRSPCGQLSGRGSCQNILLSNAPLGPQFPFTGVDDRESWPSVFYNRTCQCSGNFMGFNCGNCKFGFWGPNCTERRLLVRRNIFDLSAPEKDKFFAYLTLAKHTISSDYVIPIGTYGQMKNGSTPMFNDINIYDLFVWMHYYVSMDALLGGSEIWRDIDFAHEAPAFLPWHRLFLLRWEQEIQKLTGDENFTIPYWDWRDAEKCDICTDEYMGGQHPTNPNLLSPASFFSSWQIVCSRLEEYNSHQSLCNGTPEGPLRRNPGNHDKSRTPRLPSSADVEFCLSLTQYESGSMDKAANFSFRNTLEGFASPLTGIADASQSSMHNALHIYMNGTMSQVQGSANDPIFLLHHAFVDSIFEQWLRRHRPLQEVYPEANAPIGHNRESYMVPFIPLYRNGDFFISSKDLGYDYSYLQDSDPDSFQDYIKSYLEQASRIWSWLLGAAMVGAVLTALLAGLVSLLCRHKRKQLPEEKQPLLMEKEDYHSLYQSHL

Oc1ccc(O)cc1 [hydroquinone]
moyenne absorbance à 475 nm (tyrosine kinase): 0.024 ± 0.001

antimycine
cellules, intensité de fluorescence 4 : Très importante, tout le cytoplasme est fluorescent ([1]; témoin 12,3 ± 2,1): 10,7 ± 2,5
cellules, intensité de fluorescence 0 : cytoplasme non fluorescent ([1]; témoin 17,7 ± 2,1): 25,0 ± 4,1
cellules, intensité de fluorescence 1 : faible ([1]; témoin 21,0 ± 2,9): 16,3 ± 1,9
cellules, intensité de fluorescence 2 : moyennement intense ([1]; témoin 25,0 ± 2,4): 20,0 ± 1,6
cellules, intensité de fluorescence 3 : Importante ([1]; témoin 25,7 ± 3,1): 13,3 ± 2,4
